Results published in patent US20100280010A1, “CHEMICAL COMPOUNDS” (priority 2006, published 2010).

Test system: HIV-1 (Ba-L or IIIB) infection of HOS cell line (expressing hCXCR4/hCCR5/hCD4/pHIV-LTR-luciferase)
Assay: HOS HIV-1 Infectivity Assay
Assay type: cell-based
Conditions: Human immunodeficiency virus 1, HOS, virus strain not given, read-out: Activity Level
Description: Compounds were profiled against two HIV-1 viruses, the M-tropic (CCR5 utilizing) Ba-L strain and the T-tropic (CXCR4 utilizing) IIIB strain. Ba-L was propagated in either peripheral blood lymphocytes or SupT1/CCR5+/CXCR4+ cells. IIIB was propagated in peripheral blood lymphocytes. Compounds were tested for their ability to block infection of the HOS cell line (expressing hCXCR4/hCCR5/hCD4/pHIV-LTR-luciferase) by either HIV-1 Ba-L or HIV-1 IIIB. Compound cytotoxicity was also examined in the absence of virus addition.
HOS cells (expressing hCXCR4/hCCR5/hCD4/pHIV-LTR-luciferase) were harvested and diluted in Dulbeccos modified Eagles media supplemented with 2% FCS to a concentration of 120,000 cells/ml. The cells were plated into 96-well plates (50 μl per well) and the plates were placed in a tissue culture incubator ([…]; 5% CO2195% air) for a period of 24 h.
Subsequently, 50 μl of the desired drug solution (2 times the final concentration) was added to each well and the plates were returned to the tissue culture incubator (370° C.; 5% CO2/95% air) for 1 h. Following this incubation, 60 μl of diluted virus (4 times the final concentration) was added to 60 μl of 2× the final desired concentration of the compound and 100 μl of this compound/virus mix was added to each well (approximately 2 million RLU per well of virus). The plates were returned to the tissue culture incubator (370° C.; 5% CO2/95% air) and were incubated for a further 96 h.
Following this incubation the endpoint for the virally infected cultures was quantified following addition of Steady-Glo Luciferase assay system reagent (Promega, Madison, Wis.). Cell viability or non-infected cultures was measured using a CellTiter-Glo luminescent cell viability assay system (Promega, Madison, Wis.). All luminescent readouts are performed on a Topcount luminescence detector (Packard, Meridien, Conn.).

Which IC50 does the source give for `CC(C)N(Cc1nc2cccc(N3CCC(N(C)C)CC3)n2c1C#N)[C@H]1CCCc2cccnc21` [Example 70, 5-[4-(dimethylamino)-1-piperidinyl]-2-({(1-methylethyl)[(8S)-5,6,7,8-tetrahydro-8-quinolinyl]amino}methyl)imidazo[1,2-a]pyridine-3-carbonitrile] here?
The IC50 was under 100 nM.

`CC(C)N(Cc1nc2cccc(N3CCC(N(C)C)CC3)n2c1C(N)=O)[C@H]1CCCc2cccnc21` [Example 71, 5-[4-(dimethylamino)-1-piperidinyl]-2-({(1-methylethyl)[(8S)-5,6,7,8-tetrahydro-8-quinolinyl]amino}methyl)imidazo[1,2-a]pyridine-3-carboxamide] was tested. Which IC50 did it give?
The IC50 was under 100 nM.

For `CN1CCN(c2cccc3nc(CN(C)[C@H]4CCCc5cccnc54)c(Cl)n23)CC1` [Example 72, (8S)—N-{[3-Chloro-5-(4-methyl-1-piperazinyl)imidazo[1,2-a]pyridin-2-yl]methyl}-N-methyl-5,6,7,8-tetrahydro-8-quinolinamine], which IC50 is on record?
The IC50 was under 100 nM.

With `CCN1CCN(c2cccc3nc(CN(C)[C@H]4CCCc5cccnc54)c(Cl)n23)CC1` [Example 73, (8S)—N-{[3-Chloro-5-(4-ethyl-1-piperazinyl)imidazo[1,2-a]pyridin-2-yl]methyl}-N-methyl-5,6,7,8-tetrahydro-8-quinolinamine] as the compound, how does the IC50 read?
The IC50 was under 100 nM.

How did the IC50 turn out when `CN(C)[C@@H]1CCN(c2cccc3nc(CN(C)[C@H]4CCCc5cccnc54)c(Cl)n23)C1` [Example 74, (8S)—N-({3-Chloro-5-[(3R)-3-(dimethylamino)-1-pyrrolidinyl]imidazo[1,2-a]pyridin-2-yl}methyl)-N-methyl-5,6,7,8-tetrahydro-8-quinolinamine] was run?
The IC50 was under 100 nM.

Which IC50 does the source give for `CN(C)C1CCN(c2cccc3nc(CN(C)[C@H]4CCCc5cccnc54)c(Cl)n23)CC1` [Example 75, (8S)—N-({3-Chloro-5-[4-(dimethylamino)-1-piperidinyl]imidazo[1,2-a]pyridin-2-yl}methyl)-N-methyl-5,6,7,8-tetrahydro-8-quinolinamine] here?
Its IC50 is under 100 nM.

For `CN1CCCN(c2cccc3nc(CN(C)[C@H]4CCCc5cccnc54)c(Cl)n23)CC1` [Example 76, (8S)—N-{[3-Chloro-5-(4-methylhexahydro-1H-1,4-diazepin-1-yl)imidazo[1,2-a]pyridin-2-yl]methyl}-N-methyl-5,6,7,8-tetrahydro-8-quinolinamine], which IC50 is on record?
Its IC50 is under 100 nM.

With `CN(C)CCN(C)c1cccc2nc(CN(C)[C@H]3CCCc4cccnc43)c(Cl)n12` [Example 77, N-[3-Chloro-2-({methyl[(8S)-5,6,7,8-tetrahydro-8-quinolinyl]amino}methyl)imidazo[1,2-a]pyridin-5-yl]-N,N′,N′-trimethyl-1,2-ethanediamine] as the compound, how does the IC50 read?
The IC50 was under 100 nM.

Which IC50 does the source give for `C[C@H]1CN(c2cccc3nc(CN(C)[C@H]4CCCc5cccnc54)c(Cl)n23)CCN1` [Example 78, (8S)—N-({3-Chloro-5-[(3S)-3-methyl-1-piperazinyl]imidazo[1,2-a]pyridin-2-yl}methyl)-N-methyl-5,6,7,8-tetrahydro-8-quinolinamine] here?
The IC50 was under 100 nM.

Which IC50 does the source give for `C[C@H]1CN(c2cccc3nc(CN(C)[C@H]4CCCc5cccnc54)c(Cl)n23)CCN1C` [Example 79, (8S)—N-([3-Chloro-5-[(3S)-3,4-dimethyl-1-piperazinyl]imidazo[1,2-a]pyridin-2-yl]methyl)-N-methyl-5,6,7,8-tetrahydro-8-quinolinamine] here?
Its IC50 is under 100 nM.

Which IC50 does the source give for `CC(C)N1CCN(c2cccc3nc(CN(C)[C@H]4CCCc5cccnc54)c(Cl)n23)CC1` [Example 80, (8S)—N-({3-Chloro-5-[4-(1-methylethyl)-1-piperazinyl]imidazo[1,2-a]pyridin-2-yl}methyl)-N-methyl-5,6,7,8-tetrahydro-8-quinolinamine] here?
The IC50 was under 100 nM.

How did the IC50 turn out when `CN(Cc1nc2cccc(N3CCN4CCC[C@H]4C3)n2c1Cl)[C@H]1CCCc2cccnc21` [Example 81, (8S)—N-({3-Chloro-5-[(8aS)-hexahydropyrrolo[1,2-a]pyrazin-2(1H)-yl]imidazo[1,2-a]pyridin-2-yl}methyl)-N-methyl-5,6,7,8-tetrahydro-8-quinolinamine] was run?
Its IC50 is under 100 nM.

`CCCN(Cc1nc2cccc(N3CCN(C)CC3)n2c1Cl)[C@H]1CCCc2cccnc21` [Example 82, (8S)—N-{[3-Chloro-5-(4-methyl-1-piperazinyl)imidazo[1,2-a]pyridin-2-yl]methyl}-N-propyl-5,6,7,8-tetrahydro-8-quinolinamine] was tested. Which IC50 did it give?
The IC50 was under 100 nM.

`CCCN(Cc1nc2cccc(N3CCN(CC)CC3)n2c1Cl)[C@H]1CCCc2cccnc21` [Example 83, (8S)—N-{[3-Chloro-5-(4-ethyl-1-piperazinyl)imidazo[1,2-a]pyridin-2-yl]methyl}-N-propyl-5,6,7,8-tetrahydro-8-quinolinamine] was tested. Which IC50 did it give?
The IC50 was under 100 nM.

For `CCCN(Cc1nc2cccc(N3CCCN(C)CC3)n2c1Cl)[C@H]1CCCc2cccnc21` [Example 84, (8S)—N-{[3-Chloro-5-(4-methylhexahydro-1H-1,4-diazepin-1-yl)imidazo[1,2-a]pyridin-2-yl]methyl}-N-propyl-5,6,7,8-tetrahydro-8-quinolinamine], which IC50 is on record?
The IC50 was under 100 nM.

`CCCN(Cc1nc2cccc(N3CCN(C(C)C)CC3)n2c1Cl)[C@H]1CCCc2cccnc21` [Example 85, (8S)—N-({3-Chloro-5-[4-(1-methylethyl)-1-piperazinyl]imidazo[1,2-a]pyridin-2-yl}methyl)-N-propyl-5,6,7,8-tetrahydro-8-quinolinamine] was tested. Which IC50 did it give?
Its IC50 is under 100 nM.

How did the IC50 turn out when `CCCN(Cc1nc2cccc(N3CC[C@@H](N(C)C)C3)n2c1Cl)[C@H]1CCCc2cccnc21` [Example 86, (8S)—N-({3-Chloro-5-[(3R)-3-(dimethylamino)-1-pyrrolidinyl]imidazo[1,2-a]pyridin-2-yl}methyl)-N-propyl-5,6,7,8-tetrahydro-8-quinolinamine] was run?
The IC50 was under 100 nM.

For `CCCN(Cc1nc2cccc(N3CCC(N(C)C)CC3)n2c1Cl)[C@H]1CCCc2cccnc21` [Example 87, (8S)—N-({3-Chloro-5-[4-(dimethylamino)-1-piperidinyl]imidazo[1,2-a]pyridin-2-yl}methyl)-N-propyl-5,6,7,8-tetrahydro-8-quinolinamine], which IC50 is on record?
Its IC50 is under 100 nM.

`CCCN(Cc1nc2cccc(N3CCN[C@@H](C)C3)n2c1Cl)[C@H]1CCCc2cccnc21` [Example 88, (8S)—N-({3-Chloro-5-[(3S)-3-methyl-1-piperazinyl]imidazo[1,2-a]pyridin-2-yl}methyl)-N-propyl-5,6,7,8-tetrahydro-8-quinolinamine] was tested. Which IC50 did it give?
The IC50 was under 100 nM.

`CCCN(Cc1nc2cccc(N(C)CCN(C)C)n2c1Cl)[C@H]1CCCc2cccnc21` [Example 89, N-[3-Chloro-2-({propyl[(8S)-5,6,7,8-tetrahydro-8-Quinolinyl]amino}methyl)imidazo[1,2-a]pyridin-5-yl]-N,N′,N′-trimethyl-1,2-ethanediamine] was tested. Which IC50 did it give?
The IC50 was under 100 nM.

How did the IC50 turn out when `CCCN(Cc1cn2c(N3CCN(C)CC3)ccc(F)c2n1)[C@H]1CCCc2cccnc21` [Example 90, (8S)—N-{[8-Fluoro-5-(4-methyl-1-piperazinyl)imidazo[1,2-a]pyridin-2-yl]methyl}-N-propyl-5,6,7,8-tetrahydro-8-quinolinamine] was run?
Its IC50 is under 100 nM.
